Legend:
[1] = target: T1, Amine oxidase [flavin-containing] B (Rattus norvegicus, UniProt P19643); test: Inhibition of MAO-B in mitochondria-enriched Sprague-Dawley rat liver fractions using p-tyramine as substrate incubated for 30 mins prior to substrate addition measured for 45 mins by amplex red reagent-based microplate fluorescence reader analysis
T1 sequence (P19643 whole entry): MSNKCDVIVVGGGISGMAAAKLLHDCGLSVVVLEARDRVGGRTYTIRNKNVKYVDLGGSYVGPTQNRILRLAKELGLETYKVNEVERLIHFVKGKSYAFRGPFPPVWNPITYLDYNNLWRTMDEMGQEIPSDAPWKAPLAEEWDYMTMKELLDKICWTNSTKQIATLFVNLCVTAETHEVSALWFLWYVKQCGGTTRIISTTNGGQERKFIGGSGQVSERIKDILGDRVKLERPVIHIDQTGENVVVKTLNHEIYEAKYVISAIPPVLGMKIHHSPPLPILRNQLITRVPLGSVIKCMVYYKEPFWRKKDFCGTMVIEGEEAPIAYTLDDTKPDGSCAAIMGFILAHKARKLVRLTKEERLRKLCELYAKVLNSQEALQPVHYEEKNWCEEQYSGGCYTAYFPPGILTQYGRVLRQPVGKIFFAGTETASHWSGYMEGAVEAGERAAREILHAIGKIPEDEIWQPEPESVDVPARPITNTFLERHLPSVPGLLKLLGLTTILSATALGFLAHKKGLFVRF

[2] = Selectivity ratio of IC50 for MAO-B in mitochondria-enriched Sprague-Dawley rat liver fractions to IC50 for recombinant human MAO-B
Adenosine receptor A3 = target: T2, Adenosine receptor A3 (Homo sapiens, UniProt P0DMS8); test: Displacement of [3H]PSB-11 from human recombinant adenosine A3 receptor expressed in CHO cells after 60 mins by liquid scintillation counting analysis; format: cell-based
T2 sequence (P0DMS8 whole entry): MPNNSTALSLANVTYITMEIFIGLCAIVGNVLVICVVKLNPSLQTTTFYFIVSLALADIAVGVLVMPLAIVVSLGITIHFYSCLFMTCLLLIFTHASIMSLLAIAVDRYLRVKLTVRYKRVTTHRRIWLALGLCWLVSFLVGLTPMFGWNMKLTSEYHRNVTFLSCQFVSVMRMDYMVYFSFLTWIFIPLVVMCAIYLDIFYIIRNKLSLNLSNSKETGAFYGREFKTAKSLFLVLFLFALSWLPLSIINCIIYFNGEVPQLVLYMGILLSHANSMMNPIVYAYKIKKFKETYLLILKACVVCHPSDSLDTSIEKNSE

Adenosine receptor A2b = target: T3, Adenosine receptor A2b (Homo sapiens, UniProt P29275); test: Displacement of [3H]PSB-603 from human recombinant adenosine A2B receptor expressed in CHO cells after 75 mins by liquid scintillation counting analysis; format: cell-based
T3 sequence (P29275 whole entry): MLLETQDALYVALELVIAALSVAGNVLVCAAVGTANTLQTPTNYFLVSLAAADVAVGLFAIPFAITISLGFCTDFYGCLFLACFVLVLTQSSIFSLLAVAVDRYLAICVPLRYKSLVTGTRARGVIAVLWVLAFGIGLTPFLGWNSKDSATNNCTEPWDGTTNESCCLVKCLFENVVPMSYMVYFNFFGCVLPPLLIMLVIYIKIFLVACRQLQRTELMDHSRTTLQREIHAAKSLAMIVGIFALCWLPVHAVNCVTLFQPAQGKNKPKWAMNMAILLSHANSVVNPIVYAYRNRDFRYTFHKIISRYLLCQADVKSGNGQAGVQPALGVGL

Adenosine receptor A2a [3] = target: Adenosine receptor A2a (Rattus norvegicus, UniProt P30543); test: Displacement of [3H]MSX2 from adenosine A2A receptor in rat brain striatal membranes after 30 mins by liquid scintillation counting analysis; format: cell membranes, Membrane
Adenosine receptor A1 [4] = target: T4, Adenosine receptor A1 (Rattus norvegicus, UniProt P25099); test: Displacement of [3H]CCPA from adenosine A1 receptor in rat brain cortical membranes after 90 mins by liquid scintillation counting analysis; format: cell membranes, Membrane
T4 sequence (P25099 whole entry): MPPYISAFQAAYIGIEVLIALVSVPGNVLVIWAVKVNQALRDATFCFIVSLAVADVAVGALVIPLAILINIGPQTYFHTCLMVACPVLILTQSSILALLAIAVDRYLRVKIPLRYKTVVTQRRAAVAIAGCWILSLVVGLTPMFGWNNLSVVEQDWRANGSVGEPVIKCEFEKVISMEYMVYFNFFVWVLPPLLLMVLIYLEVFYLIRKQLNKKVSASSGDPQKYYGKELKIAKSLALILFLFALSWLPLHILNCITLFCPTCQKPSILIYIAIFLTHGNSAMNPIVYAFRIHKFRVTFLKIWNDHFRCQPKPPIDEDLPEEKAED

[5] = target: T5, Amine oxidase [flavin-containing] B (Homo sapiens, UniProt P27338); test: Inhibition of recombinant human MAO-B expressed in baculovirus-infected insect cells using p-tyramine as substrate incubated for 30 mins prior to substrate addition measured for 45 mins by amplex red reagent-based microplate fluorescence reader analysis; format: cell-based
T5 sequence (P27338 whole entry): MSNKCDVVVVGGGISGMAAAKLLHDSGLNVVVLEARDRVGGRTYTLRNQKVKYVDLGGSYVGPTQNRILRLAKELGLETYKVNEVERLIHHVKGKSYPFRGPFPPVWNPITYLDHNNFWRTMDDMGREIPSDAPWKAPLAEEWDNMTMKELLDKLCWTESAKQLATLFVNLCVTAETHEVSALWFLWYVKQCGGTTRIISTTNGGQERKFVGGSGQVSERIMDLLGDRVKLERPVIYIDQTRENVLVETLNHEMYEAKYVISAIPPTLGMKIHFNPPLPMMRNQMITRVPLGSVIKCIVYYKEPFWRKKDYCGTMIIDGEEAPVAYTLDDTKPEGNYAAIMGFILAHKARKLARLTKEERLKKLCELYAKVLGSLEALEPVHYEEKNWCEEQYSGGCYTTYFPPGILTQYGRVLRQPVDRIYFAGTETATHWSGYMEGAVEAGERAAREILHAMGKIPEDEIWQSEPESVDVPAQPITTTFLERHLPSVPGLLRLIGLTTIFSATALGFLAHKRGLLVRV

Adenosine receptor A1 [6] = target: T6, Adenosine receptor A1 (Homo sapiens, UniProt P30542); test: Displacement of [3H]CCPA from human recombinant adenosine A1 receptor expressed in CHO cells after 90 mins by liquid scintillation counting analysis; format: cell-based
T6 sequence (P30542 whole entry): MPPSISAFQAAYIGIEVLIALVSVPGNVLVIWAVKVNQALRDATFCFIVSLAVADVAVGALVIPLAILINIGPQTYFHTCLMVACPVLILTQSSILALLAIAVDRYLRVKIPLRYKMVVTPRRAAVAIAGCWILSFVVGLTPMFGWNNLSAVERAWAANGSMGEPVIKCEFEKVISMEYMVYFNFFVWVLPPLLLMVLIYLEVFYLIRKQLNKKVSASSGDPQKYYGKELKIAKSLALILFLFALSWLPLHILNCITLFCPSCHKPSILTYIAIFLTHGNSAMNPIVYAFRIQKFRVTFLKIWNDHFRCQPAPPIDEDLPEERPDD

Adenosine receptor A2a [7] = target: Adenosine receptor A2a (Homo sapiens, UniProt P29274); test: Displacement of [3H]MSX2 from human recombinant adenosine A2A receptor expressed in CHO cells after 30 mins by liquid scintillation counting analysis; format: cell-based
Sequence of Adenosine receptor A2a (Homo sapiens, UniProt P29274) (P29274 whole entry): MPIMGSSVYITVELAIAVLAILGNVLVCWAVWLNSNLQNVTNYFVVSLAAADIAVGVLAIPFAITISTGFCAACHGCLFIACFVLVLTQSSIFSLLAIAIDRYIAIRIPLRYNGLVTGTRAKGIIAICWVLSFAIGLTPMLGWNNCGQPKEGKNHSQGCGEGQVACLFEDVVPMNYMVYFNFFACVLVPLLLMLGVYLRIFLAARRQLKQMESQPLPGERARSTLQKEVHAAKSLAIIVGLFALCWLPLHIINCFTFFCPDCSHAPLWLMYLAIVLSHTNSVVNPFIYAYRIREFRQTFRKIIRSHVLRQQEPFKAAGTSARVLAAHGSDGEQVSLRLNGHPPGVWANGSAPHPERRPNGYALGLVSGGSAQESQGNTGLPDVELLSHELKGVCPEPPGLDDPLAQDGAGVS

Sequence of Adenosine receptor A2a (Rattus norvegicus, UniProt P30543) (P30543 whole entry): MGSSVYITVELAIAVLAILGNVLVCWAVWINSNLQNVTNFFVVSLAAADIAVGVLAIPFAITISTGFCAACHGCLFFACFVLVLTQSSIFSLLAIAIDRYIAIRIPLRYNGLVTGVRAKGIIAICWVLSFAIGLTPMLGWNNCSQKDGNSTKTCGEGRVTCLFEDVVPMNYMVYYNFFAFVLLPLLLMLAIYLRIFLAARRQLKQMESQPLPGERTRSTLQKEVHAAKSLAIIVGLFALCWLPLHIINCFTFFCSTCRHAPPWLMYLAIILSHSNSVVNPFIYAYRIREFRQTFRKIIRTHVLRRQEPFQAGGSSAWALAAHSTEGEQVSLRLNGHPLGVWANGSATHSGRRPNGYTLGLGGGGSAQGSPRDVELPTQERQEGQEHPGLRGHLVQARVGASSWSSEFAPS

Structure (SMILES) | IC50 [1] [µM] | Ratio IC50 [2] | Ki (Adenosine receptor A3) [µM] | Ki (Adenosine receptor A2b) [µM] | Ki (Adenosine receptor A2a [3]) [µM] | Ki (Adenosine receptor A1 [4]) [µM] | IC50 [5] [µM] | Ki (Adenosine receptor A1 [6]) [µM] | Ki (Adenosine receptor A2a [7]) [µM]
O=C(Nc1nc2ccccc2c(=O)s1)c1ccccc1 | > 10 | 1.4 |  |  |  |  |  |  | 
O=C(CCCc1ccccc1)Nc1nc2ccc(Br)cc2c(=O)s1 | > 10 | 1.4 | > 1 | > 1 | > 10 | > 10 | > 10 |  | 
Cc1sc2nc(NC(=O)CCCc3ccccc3)sc(=O)c2c1C | 0.0266 | 1.4 | > 1 | > 1 | > 10 | > 10 | 0.0098 |  | 
Cc1ccc2nc(NC(=O)CCCc3ccccc3)sc(=O)c2c1 | 0.325 | 1.4 | 0.147 | 0.408 | 6.06 | 0.0983 | 0.094 | 1 | 
O=C(CCCc1cccc(Cl)c1)Nc1nc2ccccc2c(=O)s1 | 6.88 | 1.4 | > 1 | ≥ 1 | > 10 | 0.898 | > 1 | > 10 | 
O=C(/C=C/c1cccc(Cl)c1)Nc1nc2ccccc2c(=O)s1 | 0.815 | 1.4 | > 1 | > 1 | > 10 | ≥ 10 | 0.0933 |  | > 1
CN(C(=O)CCCc1ccccc1)c1nc2ccccc2c(=O)s1 |  | 1.4 | > 1 | > 1 | > 10 | > 10 | 0.0531 |  | > 10
O=C(CCCc1ccc(Cl)c(Cl)c1)Nc1nc2ccccc2c(=O)s1 | 3.3 |  | > 1 | > 1 | > 10 | > 1.5 | 3.44 |  | 
O=C(Nc1nc2ccccc2c(=O)s1)c1ccc(C(=O)N2CCN(Cc3ccccc3)CC2)cc1 |  | 1.4 |  |  |  |  | > 10 |  | 
O=C(Nc1nc2ccccc2c(=O)s1)c1ccc(C(=O)N2CCN(Cc3cccc(Cl)c3)CC2)cc1 |  | 1.4 | > 1 | > 1 | 0.0847 |  | > 10 | > 1 | 0.0583
O=C(CCc1ccccc1Br)Nc1nc2ccccc2c(=O)s1 | 0.064 | 31 | > 1 | > 1 | > 10 | > 10 | 0.00209 |  | 
O=C(C/C=C/c1ccc(Cl)c(Cl)c1)Nc1nc2ccccc2c(=O)s1 | 4.64 |  | > 1 | > 1 | > 1 | ≥ 1.5 | > 10 |  | 
O=C(CCCc1ccccc1)Nc1nc2cc(Cl)ccc2c(=O)s1 | 1.22 | 1.4 | 0.0916 | > 1 | ≥ 10 | 0.0644 | 0.0764 | 0.785 | 
O=C(CCc1ccccc1F)Nc1nc2ccccc2c(=O)s1 | 0.725 | 65 | ≥ 1 | 0.801 | 2.19 | > 10 | 0.0112 |  | 
O=C(CCCc1ccccc1)Nc1nc2ccsc2c(=O)s1 | 0.298 | 1.4 | > 1 | 0.547 | > 10 | ≥ 10 | 0.206 |  | 
COc1cccc(C#CC(=O)Nc2nc3ccccc3c(=O)s2)c1 | 0.0739 | 1.4 | > 1 | > 1 | 1.72 | > 10 | 0.0437 |  | ≥ 1
O=C(CCc1ccc(Cl)c(Cl)c1)Nc1nc2ccccc2c(=O)s1 | > 10 | 1.4 | > 1 | > 1 | > 10 | > 1.5 | > 10 |  | 
O=C(CCCc1ccccc1)Nc1nc2ccc(Cl)cc2c(=O)s1 | > 10 | 1.4 | > 1 | > 1 | > 10 | > 10 | > 10 |  | 
